Data taken from patent US6861445B2, “3-Substituted-3-(substitutedsulfonyl or sulfanyl)pyrrolidine-2,5-diones useful for inhibition of farnesyl-protein transferase” (Wyeth Holdings Corporation, priority 2001, dated 2005).

How the values were obtained:
FPTase (K-Ras substrate) = FPTase (K-Ras substrate) (Homo sapiens, UniProt P49354+P49356); experiment: in vitro FTase Inhibition Assay, K-Ras as substrate for farnesylation; format: biochemical; settings: K-Ras used as substrate for farnesylation
Method: (§1) The ability of the compounds of this invention to inhibit FPTase was evaluated in the standard pharmacological in vitro test procedures described below.
(§2) Enzyme test procedure: FPTase inhibition in vitro assay was performed according to James, G. L., Brown, M. S., and Goldstein, J. L., Methods in Enzymology, 1995, 255, 38-46; and Garcia, M. A., et al., J. Biol. Chem., 1993, 268, 18415-18420.
(§3) • Materials—Purified FPTase (Moomaw, J. F. and Casey, P. J., J. Biol. Chem., 1992, 267, 17438-17443), purified His6-Ras, inhibitor compounds at 10 mg/ml or 10 mM in 100% DMSO, ^3H-FPP (50,000 dpm/pmol) Amersham, TCA/SDS (6%/2%), TCA (6%), Glass fiber filters (0.22-0.45 m), vacuum manifold or 96 well filtration plates. • Methods—1. Dilute FPTase inhibitors from stock solutions to 2.5× in 2.5% DMSO, 10 mM DTT, 0.5% octyl-B-glucoside. 2. Solution #1 is added to FPTase reaction in a volume of […]. 3. Standard reaction mix, […], contains 50 mM Tris (7.5),[…], 3 mM MgCl2, 20 mM KCl, 5 mM DTT, 0.2% octyl-B-glucoside, 1% DMSO, […] His6-Ras, 10 ng FPTase, and various concentrations of FPTase inhibitors. 4. Incubate for 30-90 min at 25° C. 5. […] Add scintillant to filters, measure ^3H-FPP incorporation into Ras protein. • Analysis of Results—Percent inhibition by test compounds is determined by the following: […]. […]

FPTase (H-Ras substrate) = FPTase (H-Ras substrate) (Homo sapiens, UniProt P49354+P49356); experiment: in vitro FTase Inhibition Assay, H-Ras as substrate for farnesylation; format: biochemical; settings: H-Ras used as substrate for farnesylation
Method: as §1, §2, §3

| IC50 (FPTase (K-Ras substrate)) [nM] | melting point [°C] | IC50 (FPTase (H-Ras substrate)) [nM] | SMILES |
| --- | --- | --- | --- |
| > 1000 | 160 to 162 | 140 | COc1ccc(S(=O)(=O)C2(CCCC#Cc3ccc(Cl)cc3)CC(=O)NC2=O)cc1 (stereo not shown) [3-[5-(4-Chlorophenyl)pent-4-ynyl]-3-(4-methoxybenzenesulfonyl)-pyrrolidine-2,5-dione] |
|  |  | 6500 | Cc1ccc(S(=O)(=O)C2(CC#Cc3ccc(Cl)cc3)CC(=O)NC2=O)cc1 (stereo not shown) [3-[-3-(4-Chlorophenyl)prop-2-ynyl]-3-(toluene-4-sulfonyl)pyrrolidine-2,5-dione] |
